Experimental findings from ChEMBL document CHEMBL1649129, “Treatment with the fusion inhibitor enfuvirtide influences the appearance of mutations in the human immunodeficiency virus type 1 regulatory protein rev” (2009) are described below.

What all share (type): functional
Experiment [1] relates to Human immunodeficiency virus 1. The experiment can be described thus: Antiviral activity against HIV1 harboring E57A mutant regulatory protein rev isolated from patient with viral infection assessed as viral RNA count after 48 weeks (reference value: 4.9/ml).
For experiment [2], the system named is Human immunodeficiency virus 1. The experiment can be described thus: Antiviral activity against HIV1 harboring wild type regulatory protein rev isolated from patient with viral infection assessed as change in CD4 cell count after 48 weeks relative to control.
Experiment [3] deals with Human immunodeficiency virus 1. The experiment can be described thus: Antiviral activity against HIV1 harboring wild type regulatory protein rev isolated from patient with viral infection assessed as viral RNA count after 48 weeks (reference value: 4.9/ml).
Experiment [4] concerns Human immunodeficiency virus 1. The experiment can be described thus: Antiviral activity against HIV1 harboring wild type regulatory protein rev isolated from patient with viral infection assessed as CD4 cell count after 48 weeks (reference value: 146/ul).
The subject of experiment [5] is Human immunodeficiency virus 1. The experiment can be described thus: Antiviral activity against HIV1 harboring E57A mutant regulatory protein rev isolated from patient with viral infection assessed as change in viral RNA count after 48 weeks relative to control.
Experiment [6] has as its system Human immunodeficiency virus 1. The experiment can be described thus: Antiviral activity against HIV1 harboring E57A mutant regulatory protein rev isolated from patient with viral infection assessed as CD4 cell count after 48 weeks (reference value: 176/ul).
Experiment [7] has as its system Human immunodeficiency virus 1. The experiment can be described thus: Antiviral activity against HIV1 harboring wild type regulatory protein rev isolated from patient with viral infection assessed as change in viral RNA count after 48 weeks relative to control.
Experiment [8] has as its system Human immunodeficiency virus 1. The experiment can be described thus: Antiviral activity against HIV1 harboring E57A mutant regulatory protein rev isolated from patient with viral infection assessed as change in CD4 cell count after 48 weeks relative to control.

For the substance enfuvirtide, the Activity in experiment [1] stood at 5.4 log10 copies/mL; in experiment [3], 4.4 log10 copies/mL. For the same substance, the “fold change (FC)” value in experiment [2] was 56; in experiment [5] it was 0.93; in experiment [7], -0.84; in experiment [8] it was -42. Further, the CD4 count in experiment [4] is 192 cells/µL; in experiment [6], 104 cells/µL.
